According to patent US8268869B2, “Vinyl indazolyl compounds” (Eli Lilly and Company, priority 2009, dated 2012):

What was measured:
[1] = test system: FGF receptor 1 (b-FGF induced pERK in HUVEC); experiment: AlphaScreen SureFire Detection of ERK phosphorylation (Thr202/Tyr204) in HUVEC; format: cell-based; conditions: Homo sapiens, b-FGF 50 ng/mL, 20 mg/mL BSA
Description: The effect of compounds on the inhibition of FGF receptor 1 is measured by monitoring the phosphorylation of ERK (pERK) in response to basic-Fibroblast growth factor (b-FGF) stimulation in Human Umbilical Endothelial cells (HUVEC). The levels of pERK formed are measured using the ALPHASCREEN® […]® system (TGR Biosciences, TGRES50K). This is a homogeneous assay format utilizing the immuno-sandwich capture of the phosphorylated analyte followed by detection using antibody-coated ALPHASCREEN® beads (Perkin Elmer) to generate an amplified signal.
HUVEC cells are recovered and maintained in growth medium consisting of endothelial cell basal medium (Clonetics, CC-3132) supplemented with 10% FBS 0.4% bovine brain extract 0.1% hydrocortisone, 0.1% gentamicin sulfate amphotericin-B (GA-1000), and 0.1% epidermal growth factor, human recombination until passage 7. For the assay, cells are harvested by standard procedures and then counted. Cells (20,000/well) are plated in 100 μL of growth medium into 96 well Poly-D-Lysine coated plates (BD, 354640). Plates are incubated overnight at 37° C., 5% CO2.
On the day of the assay, cells are serum starved in 100 μL EBM (endothelial cell basal) medium containing 1.5% FBS and 20 mg/mL BSA for 3 hours at 37° C., 5% CO2, then treated with 20 μL of 3× serially diluted compounds in starvation medium for 1 hour at 37° C. […]

[2] = test system: human multiple myeloma cells OPM-2; experiment: Xenograft tumor model OPM-2 (multiple myeloma); format: in vivo, nude mice; conditions: oral gavage
Excerpt: (§1) One of Human bladder cancer cells RT112 (European Collection of Cell Cultures), human multiple myeloma cells OPM-2 (German Collection of Microorganisms and Cell Cultures), human non-small cell lung cancer (NSCL) cells NCI-H460 (American Type Culture Collection), human pancreatic cancer cells BxPC-3 (American Type Culture Collection) or human gastric cancer cells SNU-16 (American Type Culture Collection) are expanded in culture, according to KOREAN CELL LINE BANK (KCLB) recommendations, harvested and injected subcutaneously onto the rear flank of nude mice. When tumors are established (7-21 days after implant), animals are randomized and grouped into control and test groups. Test compound is prepared in an appropriate vehicle (i.e. formulated in 10% Acacia), and the test compound and a vehicle control are administered by oral gavage. Tumor response is determined by tumor volume measurement performed twice a week during the course of treatment and reported as percent inhibition of tumor volume versus the vehicle control group.

Kdr = molecular target: T1, Kdr (Mus musculus, UniProt P35918); experiment: In vivo Kdr target inhibition assay (VEGF induced phospho-Kdr in mouse heart); conditions: female nude mice, oral gavage, VEGF i.v., heart tissue
T1 construct: Heart tissues are collected and homogenized as described above; from tissue; host or cells: heart of female nude mice (CD1/nu/nu)
T1 sequence (P35918 20-1345): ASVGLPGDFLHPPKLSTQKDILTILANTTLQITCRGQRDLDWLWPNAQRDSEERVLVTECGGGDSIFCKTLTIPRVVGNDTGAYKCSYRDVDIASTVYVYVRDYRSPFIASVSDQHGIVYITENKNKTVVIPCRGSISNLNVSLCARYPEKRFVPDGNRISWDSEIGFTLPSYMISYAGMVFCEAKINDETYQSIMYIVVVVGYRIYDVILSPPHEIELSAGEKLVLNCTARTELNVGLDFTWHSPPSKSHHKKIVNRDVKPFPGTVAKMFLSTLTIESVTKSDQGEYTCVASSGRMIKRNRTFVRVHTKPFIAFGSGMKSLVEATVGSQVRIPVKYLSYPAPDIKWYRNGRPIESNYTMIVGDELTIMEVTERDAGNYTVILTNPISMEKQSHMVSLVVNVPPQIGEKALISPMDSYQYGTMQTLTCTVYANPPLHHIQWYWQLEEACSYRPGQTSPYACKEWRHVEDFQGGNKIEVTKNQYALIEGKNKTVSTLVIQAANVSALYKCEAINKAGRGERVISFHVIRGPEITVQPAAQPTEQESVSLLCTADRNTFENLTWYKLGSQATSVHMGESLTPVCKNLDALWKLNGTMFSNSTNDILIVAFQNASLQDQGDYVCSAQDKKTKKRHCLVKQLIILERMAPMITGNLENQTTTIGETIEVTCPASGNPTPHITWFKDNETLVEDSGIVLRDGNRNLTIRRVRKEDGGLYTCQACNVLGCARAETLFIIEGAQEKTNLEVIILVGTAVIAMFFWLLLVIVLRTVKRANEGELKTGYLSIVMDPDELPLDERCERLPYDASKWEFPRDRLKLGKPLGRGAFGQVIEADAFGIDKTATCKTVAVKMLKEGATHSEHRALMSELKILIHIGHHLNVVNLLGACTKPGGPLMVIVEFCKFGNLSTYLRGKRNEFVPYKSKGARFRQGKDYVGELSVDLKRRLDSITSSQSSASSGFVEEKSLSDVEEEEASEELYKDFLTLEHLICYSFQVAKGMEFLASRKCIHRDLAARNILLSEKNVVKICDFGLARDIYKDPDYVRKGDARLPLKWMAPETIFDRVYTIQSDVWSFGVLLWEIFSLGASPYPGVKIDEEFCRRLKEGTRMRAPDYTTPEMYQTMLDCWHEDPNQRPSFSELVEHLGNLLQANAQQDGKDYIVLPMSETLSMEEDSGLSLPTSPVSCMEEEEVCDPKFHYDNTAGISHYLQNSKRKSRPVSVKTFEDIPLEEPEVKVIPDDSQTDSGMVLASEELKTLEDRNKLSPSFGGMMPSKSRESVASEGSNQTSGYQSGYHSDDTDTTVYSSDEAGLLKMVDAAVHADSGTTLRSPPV
Description: To assess the activity of this compound against Kdr, female nude mice (CD1/nu/nu) are acclimated and treated as described above except VEGF is used to induce Kdr autophosphorylation {VEGF (6 ug/animal, R & D Systems 493-MV/CF). Heart tissues are collected and homogenized as described above. The resulting homogenates are analyzed using MSD® phospho-Kdr ELISA (Meso Scale Discovery, catalog number N41ZA-1) to determine tissue phospho-Kdr level. […] The positive control group is treated with VEGF […]) in saline administered intravenously (as minimum p-KDR inhibition of 0%).

[3] = test system: FGF9 induced ERK phosphorylation in Human RT112 bladder carcinoma cells; experiment: FGF9 induced p-ERK with BSA in RT112 cells; format: cell-based; conditions: RT-112, relative IC50, RT112 cells, 20 mg/mL BSA, 500 ng/mL FGF9
Description: Human RT112 bladder carcinoma cells are seeded at a density of 5,000 cells per well in 100 μL RPMI 1640 (Gibco 11875-085) supplemented with 10% fetal bovine serum (FBS, Gibco 10082-147) and 1% of a penicillin/streptomycin solution (Gibco 15140-122) in CELLBIND® 96 well plates (Corning 3340) and incubated overnight at 37° C. The next morning the growth medium is removed and replaced with 100 μL RPMI 1640 supplemented with 20 mg/mL bovine serum albumin (BSA). After 3 hours of incubation at 37° C., 20 μL of 3× serially diluted compounds in RPMI 1640 with 20 mg/mL BSA in 6% DMSO are added to each well. This yielded a 10 point dose-response curve ranging from 10-0.005 μM in 1% DMSO. The incubation is continued for 1 hour at 37° C. The cells are stimulated with 50 μL of a […] FGF9 (R&D Systems 273-F9) solution in serum free RPMI to give a final concentration of 500 ng/mL FGF9. Cells are fixed by the addition of 30 μL of a 25% formaldehyde solution in phosphate buffered saline (PBS) (3.7% formaldehyde final concentration), and incubated 30 minutes at RT. Cells are washed 3× with PBS, followed by the addition of 100 μL of cold methanol and incubated for 30 minutes at −20° C. The methanol is removed and the cells are treated with PBS containing 0.1% TRITON® X-100 (PBST), washed 3× with PBS, and incubated 15 minutes at RT. […]

[4] = test system: human non-small cell lung cancer (NSCL) cells NCI-H460; experiment: Xenograft tumor model NCI-H460 (NSCLC); format: in vivo, nude mice; conditions: oral gavage
Excerpt: as §1

[5] = test system: human gastric cancer cells SNU-16; experiment: Xenograft tumor model SNU-16 (gastric); format: in vivo, nude mice; conditions: oral gavage
Excerpt: as §1

[6] = test system: Human bladder cancer cells RT112; experiment: Xenograft tumor model RT-112 (bladder); format: in vivo, nude mice; conditions: oral gavage
Excerpt: as §1

[7] = test system: human pancreatic cancer cells BxPC-3; experiment: Xenograft tumor model BxPC-3 (pancreatic); format: in vivo, nude mice; conditions: oral gavage
Excerpt: as §1

## C[C@@H](Oc1ccc2[nH]nc(/C=C/c3cnn(CCO)c3)c2c1)c1c(Cl)cncc1Cl [Example 1, (R)-(E)-2-(4-(2-(5-(1-(3,5-Dichloropyridin-4-yl)ethoxy)-1H-indazol-3-yl)vinyl)-1H-pyrazol-1-yl)ethanol]
[1]
  IC50: 0.6 nM
[2]; OPM-2, 3 mg/kg BID for 21 days
  percent inhibition of tumor volume versus vehicle control: 84%
[2]; OPM-2, 3 mg/kg QD for 21 days
  percent inhibition of tumor volume versus vehicle control: 68%
Kdr
  TEC90 (concentration necessary to achieve 90% inhibition of phospho-Kdr): 252 nM
  TED50 (dose necessary to achieve 50% inhibition of phospho-Kdr): 1.34 mg/kg
[3]
  IC50: 0.4 nM
[4]; NCI-H460, 3 mg/kg BID for 17 days
  percent inhibition of tumor volume versus vehicle control: 69%
[4]; NCI-H460, 3 mg/kg QD for 17 days
  percent inhibition of tumor volume versus vehicle control: 46%
[5]; SNU-16, 3 mg/kg BID for 17 days
  percent inhibition of tumor volume versus vehicle control: 83%
[5]; SNU-16, 3 mg/kg QD for 17 days
  percent inhibition of tumor volume versus vehicle control: 62%
[6]; RT-112, 3 mg/kg BID for 21 days
  percent inhibition of tumor volume versus vehicle control: 85.9%
[6]; RT-112, 3 mg/kg QD for 21 days
  percent inhibition of tumor volume versus vehicle control: 41.3%
[7]; BxPC-3, 3 mg/kg BID for 21 days
  percent inhibition of tumor volume versus vehicle control: 55%
[7]; BxPC-3, 3 mg/kg QD for 21 days
  percent inhibition of tumor volume versus vehicle control: 1%
